Holding throughout (type): cell-based
In experiment [1] the test system is LNCaP, PC-3M and DU-145 cell lines. Put plainly: Paracellular permeability (PCP), TRITC-dextran diffusion. To be noted: 50 nM CT. As for the experimental part: For PCP measurements, cells were grown to confluence on Transwell filters. Tetra methyl rhodamine-dextran (1 mg/ml, ˜4 kDa, Sigma) was added to the upper chamber. Fluorescence of the lower chamber medium was measured in Modulus Microplate Reader (Turner Biosystems) at various time intervals.
Whether CT produces similar effects in LNCaP, PC-3M and DU-145 cell lines, which endogenously express CTR, was examined as shown in FIG. 1A. FIGS. 9A-9B depict the effect of CT on tight junction (TJ) disruption as measured using TER and PCP in the three prostate cancer cell lines—LNCaP, PC-3M, and DU-145. Cells were serum-starved for 4 hours, then treated with and without 50 nM CT, before measuring TER as described above. In FIG. 9B, cells were treated with and without 50 nM CT, and PCP determined by diffusion of ˜4 kDa TRITC-conjugated dextran from the upper to the lower chamber in one hour. The results are expressed as μg/ml/hour of TRITC-Dextran diffused ±SEM (n=6; *p<0.05 (−CT v +CT, One way ANOVA and Newman-Keul's test)). FIG. 9C depicts effects of CT on cell invasion in the same three cell lines—PC-3M, LNCaP, and DU145. Cells were added to upper insert of invasion chambers with or without 50 nM CT, and cells that passed through the Matrigel™ barrier were counted after 48 h. The results are expressed as mean number of invaded cells per 400× field ±SEM (n=6; *p<0.05).

For experiment [2], the system named is PC-3CTRwt cells. The experiment is described as follows: Cell adhesion on culture dishes. To be noted: 50 nM CT, 1 hour. The protocol:
Confluent cultures of PC-31-CTR cells were tested for cell adhesion after treatment with diluent (C), CT (50 nM), mPKI (myristoylated PKA inhibitory peptide (100 nM) or mPKI+CT. The number of adherent cells was determined by absorbance after 1 hour and are shown in the right graph.
(§1) To understand the significance of CT-induced, PKA-dependent disassembly of TJs in PC cell adhesion and invasion, the action of CT was examined on TER, PCP, cell adhesion and invasion in PC-3CTRwt cells in the presence/absence of mPKI. […] Similarly, mPKI abrogated the actions of CT on PCP and invasion (FIGS. 20B and 20C respectively). Next, the adhesion of PC-3CTRwt cells was examined on culture dishes.

Another experiment has as its system PC-3V cells. The experiment is described as follows: Transepithelial electric resistance (TER). To be noted: 50 nM CT. The protocol:
(§2) Cells were plated on Transwell filters (0.4 μm pore size) and grown to confluency in complete medium (RPMI1640 containing 10% fetal bovine serum, 20 mM HEPES and antibiotics). TER of the cultures (in duplicate wells) was measured at several time intervals with EVOM volt-ohm meter as previously described (Shah et al, 2009). The readings were corrected for blank (TER values from the filter in bathing medium). The integrity and cell density of monolayers were carefully monitored.
(§3) To examine the effect of calcitonin (CT) on tight junctions (TJs), the transepithelial electric resistance (TER) of polarized PC-3 cells expressing either the vector (PC-3V), CTRwt or CTRΔESS was monitored for 8 hours after CT stimulation (FIG. 2A). Polarized PC-3V, PC-3 CTRwt and PC-3 CTR-ΔESS cells were serum-starved for 4 hours, then treated with or without 50 nM CT. TER was measured with EVOM volt-ohm meter, and results expressed as Ωcm^2±SEM (n=6). […] Since PC-3 cells secrete CT, the expression of CTRwt may have activated CT-CTR axis causing almost 40% reduction of TER in PC-3CTRwt cells.

A further experiment concerns PC-3CTRΔESS cells. Put plainly: Transepithelial electric resistance (TER). As for the experimental part: as §2, §3
Experiment [3] has as its system PC-3CTRwt cells. Put plainly: Transepithelial electric resistance (TER). As for the experimental part: as §2, §3
The effect of CT on TJ functionality was tested by monitoring TER of PC-3CTRwt monolayers. […] Polarized PC-3-CTRwt cells were serum-starved for 4 hours, then treated with or without 50 nM CT. TER was measured with EVOM volt-ohm meter. The results are expressed as TER ±SEM (Ωcm^2±SEM; n=6). […] PCP was determined by diffusion of ˜4 kDa TRITC-conjugated dextran from the upper to the lower chamber in one hour. The results are expressed as μg/ml/hour of TRITC-Dextran diffused ±SEM (n=6; *p<0.05 (−CT v +CT, One way ANOVA and Newman-Keul's test)).
as §1

Experiment [4] has as its system PC-3M cells expressing ZO-1-wt or its ΔPDZ mutants. Put plainly: Transepithelial electric resistance (TER). The conditions noted are these: CT 50 nM. As for the experimental part: as §2
Since ZO-1 contains three PDZ domains, which of these interacts with CTR-C PDZ-binding motif was analyzed. PC-3M cells was used for this study because they are PC-3-derived, but co-express both CT and CTR, and are suitable to examine modulation of CTR action in response to mutations in ZO-1 (Chien et al., 2001). To knock down endogenous ZO-1 expression, PC-3M cells were stably transfected with constitutive ZO-1 shRNA expression vector (pSuper.neo system; shRNA duplex-5′-GACGAGAUAAUCCUCAUUUtt-3′ (SEQ ID NO:8) corresponding to 596-614 bp of ZO-1 mRNA). Since the constitutive presence of ZO-1 siRNA in PC-3M cells could interfere with the re-expression of ZO-1 wt or its ΔPDZ mutants, ZO-1 (wt or ΔPDZ mutants) cDNA expression vectors refractory to ZO-1 RNAi were generated by introducing a silent mutation in RNAi target sequence in the ZO-1 transgene. […]

Entries after “also recorded” stand apart in the source; their conditions may differ.

As for calcitonin [CT], the PCP result in experiment [1] was “increased PCP”. The “adhesion of the cells to plastic matrix” value in the experiment on PC-3CTRwt cells [2] was “remarkable decline”. Besides, the TER result in the experiment on PC-3V cells was “did not alter it”; in the experiment with PC-3CTRΔESS cells (50 nM CT), “did not affect TER”; in the experiment on PC-3CTRwt cells [3] (50 nM CT), “decreased TER even further; also recorded: relatively rapid decline in TER; also recorded: steady, remarkable decline”; in experiment [4] (cells expressing ZO-1-ΔPDZ3), “no decrease in TER”; in experiment [4] (cells re-expressing ZO-1-wt, ΔPDZ1 or ΔPDZ2), “remarkable decline in TER”. The “TER at multiple CT concentrations” value in the experiment on PC-3CTRΔESS cells (all CT concentrations) is “did not show any changes”; in the experiment with PC-3CTRwt cells [3] (CT 10 and 100 nM), “significant decrease”. For the same substance, the “time at which decline in TER became apparent” value in the experiment on PC-3CTRwt cells [3] (50 nM CT) is listed as at most 10 min. Further, the “time to remarkable drop in TER” value in the experiment on PC-3CTRwt cells [3] (50 nM CT) is recorded as at most 30 min.

(Values after US9765115B2, “Inhibitors of metastasis, methods of generating such inhibitors and their therapeutic applications” (Board of Supervisors of Louisiana State University acting …, priority 2011, dated 2017).)
